{
  "source": "patent US11058674B2",
  "about": "(priority 2016, dated 2021)",
  "origin": "cited, not measured here",
  "key": {"mouse [1]": {"system": "mouse", "parameters": "key to Conditioned place preference Relapse: ∘: Effective", "details": "for CPP acquisition caused by cocaine / CPP expression caused by cocaine: N/OFQ: intraventricular administration to a mouse"}, "mouse [2]": {"system": "mouse", "parameters": "key: ∘: Effective; x: Ineffective", "details": "cocaine addiction"}, "[3]": {"parameters": "key: ∘: Effective", "details": "alcohol addiction"}, "[4]": {"parameters": "key: ∘: Effective", "details": "alcohol addiction", "remark": "listed apart in the source"}, "[5]": {"details": "believed, from literature"}, "rat": {"system": "rat", "parameters": "key to Self-administration Seeking behavior: ∘: Effective; x: Ineffective"}, "mouse [6]": {"system": "mouse", "parameters": "key: ∘: Effective", "details": "cocaine addiction"}},
  "note": "Read-outs that look alike come from different tables or passages of the source.",
  "data": [
    {"compound": "O=C1Cc2ccccc2N1C1CCN(C2CCC3CCCc4cccc2c43)CC1", "note": "(centres unmarked) [AT-202, 1-[1-(2,3,3a,4,5,6-hexahydro-1H-phenalen-1-yl)piperidin-4-yl]-indolin-2-one]", "values": [
      {"measurement": "CPP acquisition caused by cocaine", "setting": "mouse [1]", "value": "does not affect"},
      {"measurement": "relapse of CPP caused by a stress", "setting": "mouse [1]; cocaine CPP", "value": "suppresses"},
      {"measurement": "Conditioned place preference Relapse", "setting": "mouse [1]; cocaine addiction", "value": "∘ ^20)"},
      {"measurement": "Conditioned place preference Acquisition", "setting": "mouse [2]", "value": "x ^20)"}
    ]},
    {"compound": "CNC(=O)Cn1c(=O)n(C2CCN([C@@H]3Cc4cccc5cccc3c45)CC2)c2ccccc21.Cl.O", "note": "[MT-7716, (R)-2-{3-[1-(acenaphthen-1-yl)piperidin-4-yl]-2-oxo-2,3-dihydro-1H-benzimidazol-1-yl}-N-methylacetamide hydrochloride monohydrate]", "values": [
      {"measurement": "Self-administration Seeking behavior", "setting": "[3]", "value": "∘ ^12)"},
      {"measurement": "Self-administration Uptake behavior", "setting": "[3]", "value": "∘ ^11)"}
    ]},
    {"compound": "Cl.O=C1NCN(c2ccccc2)C12CCN([C@H]1CC[C@@H]3CCCc4cccc1c43)CC2", "note": "[Ro64-6198, (1S,3aS)-8-(2,3,3a,4,5,6-hexahydro-1H-phenalen-1-yl)-1-phenyl-1,3,8-triaza-spiro[4.5]decan-4-one hydrochloride]", "values": [
      {"measurement": "Self-administration Uptake behavior", "setting": "[3]", "value": "∘ ^10)"},
      {"measurement": "Conditioned place preference Acquisition", "setting": "[4]", "value": "∘ ^13)"},
      {"measurement": "Conditioned place preference Expression", "setting": "[4]", "value": "∘ ^13)"},
      {"measurement": "Conditioned place preference Relapse", "setting": "[4]", "value": "∘ ^13)"}
    ]},
    {"compound": "Cl.O=C1NCN(c2ccccc2)C12CCN(C1Cc3cccc4cccc1c34)CC2", "note": "(centres unmarked) [Ro65-6570, 8-acenaphthen-1-yl-phenyl-1,3,8-triaza-spiro[4.5]decan-4-one hydrochloride]", "values": [
      {"measurement": "CPP acquisition caused by cocaine", "setting": "mouse [1]", "value": "does not affect"},
      {"measurement": "CPP expression caused by cocaine", "setting": "mouse [1]", "value": "does not affect"},
      {"measurement": "Conditioned place preference Acquisition", "setting": "mouse [2]", "value": "x ^19)"},
      {"measurement": "Conditioned place preference Expression", "setting": "mouse [2]", "value": "x ^18)"}
    ]},
    {"compound": "Cc1ccccc1C(c1ccccc1C)N1C2CCC1CC(O)(c1ccccc1)C2", "note": "(centres unmarked) [SCH221510]", "values": [
      {"measurement": "migration to brain", "setting": "[5]", "value": "low migration to brain"}
    ]},
    {"compound": "N/OFQ: Endogenous ligands of the NOP receptor, named nociceptin and orphanin FQ", "values": [
      {"measurement": "Self-administration Seeking behavior", "setting": "[3]", "value": "∘ ^9)"},
      {"measurement": "Self-administration Uptake behavior", "setting": "[3]", "value": "∘ ^9)"},
      {"measurement": "Conditioned place preference Acquisition", "setting": "[4]", "value": "∘ ^13)"},
      {"measurement": "Conditioned place preference Expression", "setting": "[4]", "value": "∘ ^13)"},
      {"measurement": "Conditioned place preference Relapse", "setting": "[4]", "value": "∘ ^13)"},
      {"measurement": "Self-administration Seeking behavior", "setting": "rat; cocaine addiction", "value": "x ^16)"},
      {"measurement": "cocaine seeking behavior induced by a stress after the extinction of the cocaine self-administration", "setting": "rat; rat", "value": "does not suppress"},
      {"measurement": "CPP acquisition caused by cocaine", "setting": "mouse [1]", "value": "blocks"},
      {"measurement": "CPP expression caused by cocaine", "setting": "mouse [1]", "value": "blocks"},
      {"measurement": "Conditioned place preference Acquisition", "setting": "mouse [6]", "value": "∘ ^17)"},
      {"measurement": "Conditioned place preference Expression", "setting": "mouse [6]", "value": "∘ ^18)"}
    ]}
  ]
}
